Assay [1] deals with T1, recombinant BRD4 BD2 (Homo sapiens, UniProt O60885).
T1 construct: for recombinant BRD4 BD1 and BRD4 BD2 proteins
Kind of assay: Competitive fluorescence-polarization (FP) binding assay, BRD4 BD2. On IC50 (nM) BRD4 BD2: probe 1.5 nM. Particulars: for Ki: read-out: Binding affinities (FP) BRD4BD2 Ki. How it is done:
(§1) Fluorescence Polarization (FP) competitive binding studies were carried out using a FAM labeled fluorescent probe (ZBA248 or BRD-1F) to determine binding affinities of representative Compounds of the Disclosure for recombinant BRD4 BD1 and BRD4 BD2 proteins. For example, equilibrium dissociation constants (Kd) values of ZBA248 to these […] proteins were determined from protein saturation experiments by monitoring the total fluorescence polarization of mixtures composed with the fluorescent probe at a fixed concentration and proteins with increasing concentrations up to full saturation. Serial dilutions of testing protein were mixed with ZBA248 to a final volume of 200 μl in the assay buffer. […] Plates were incubated at room temperature for 30 minutes with gentle shaking to assure equilibrium. […] Kd values of ZBA248 were calculated by fitting the sigmoidal dose-dependent FP increases as a function of protein concentrations using Graphpad Prism 6.0 software (Graphpad Software, San Diego, Calif.).
(§2) The IC50 and Ki values of representative Compounds of the Disclosure were determined in a competitive binding experiment as described above. Mixtures of 10 μl of the tested compounds in assay buffer with 40% Ethylene Glycol and 190 μl of preincubated protein/probe complex solution in the assay buffer (100 mM potassium phosphate, pH 6.5, 0.01% Triton X-100) were added into assay plates which were incubated at room temperature for 30 minutes with gentle shaking. Final concentrations of proteins were 10 and 6 nM in assays for BD1 and BD2 of BRD4, respectively. […] FP values were measured as described above. IC50 values were determined by nonlinear regression fitting of the competition curves.

Assay [2] deals with MOLM-13. Kind of assay: Cell growth inhibition, MOLM-13 leukemia cells (CellTiter-Glo). Format: cell-based. Particulars: Homo sapiens, MOLM-13, 96 h; 4 days; read-out: IC50 (nM) MOLM-13 Cell Line (CellTiter-Glo assay). How it is done:
Cell growth inhibitory activity of representative Compounds of the Disclosure was determined using CellTiter-Glo® Luminescent Cell Viability Assay. […] Cell viability was determined using the CellTiter-Glo® Luminescent Cell Viability Assay Kit (Promega, Madison, Wis.) according to the manufacture's instruction. Briefly, a volume of CellTiter-Glo® Reagent equal to the volume of cell culture medium was added to each well, and then the plates were incubated at room temperature for 10-20 minutes. The luminescent signal was measured using a Tecan Infinite M1000 multimode microplate reader (Tecan, Morrisville, N.C.). The half maximal inhibitory concentration (IC50) was calculated using the GraphPad Prism 5 software (GraphPad Software, La Jolla, Calif.).

The subject of assay [3] is MDA-MB-436. As to the kind of experiment: Cell growth inhibition, MDA-MB-436 breast cancer cells (WST-8). The assay is classed as cell-based. The conditions noted are these: Homo sapiens, 4 days. How it is done: All the breast cancer cell lines were obtained from the ATCC. Cell viability was determined using the WST-8 (2-(2-methoxy-4-nitrophenyl)-3-(4-nitrophenyl)-5-(2,4-disulfophenyl)-2H-tetrazolium, monosodium salt) based Cell Counting-8 Kit (Dojindo Molecular Technologies, Inc., Rockville, Md.) according to the manufacture's instruction. […] The absorbance was measured at 450 nm using a SPECTRAmax PLUS plate reader (Molecular Devices, Sunnyvale, Calif.). The IC50 was calculated using the GraphPad Prism 5 software.

For assay [4], the target named is T2, recombinant BRD4 BD1 (Homo sapiens, UniProt O60885).
T2 construct: for recombinant BRD4 BD1 and BRD4 BD2 proteins
Kind of assay: Competitive fluorescence-polarization (FP) binding assay, BRD4 BD1. On IC50 (nM) BRD4 BD1: probe 1.5 nM. The conditions noted are these: for Ki: read-out: Binding affinities (FP) BRD4BD1 Ki. How it is done: as §1, §2

Where [5] appears, read: competitive FP assay, protein 6 nM, probe […], read-out: IC50 (nM) BRD4 BD2.
Where [6] appears, read: MDA-MB-436, 96 h, read-out: IC50 (nM) MDA-MB-436 Cell Line (WST assay).
Setting [7] is: competitive FP assay, protein 10 nM, probe […], read-out: IC50 (nM) BRD4 BD1.
Setting [8] is: FP competitive binding, BRD4 BD1, read-out: Binding affinities (FP) BRD4BD1 IC50.
Setting [9] is: FP competitive binding, BRD4 BD1.
Setting [10] is: FP competitive binding, BRD4 BD2, read-out: Binding affinities (FP) BRD4BD2 IC50.
The mark [11] stands for this setting: FP competitive binding, BRD4 BD2.
Setting [12] is: 96 h, MDA-MB-436 cells, read-out: Cellular data MDA-MB-436 IC50.

Read-outs that look alike come from different tables or passages of the source.

As usually defined, the IC50 is the concentration needed to halve the response being measured. The Ki is a dissociation constant, usually derived from enzyme kinetics or from competition with a known ligand.

Take `COc1cc2c(cc1-c1c(C)noc1C)[nH]c1nc(C)nc(Nc3cc(C)nn3-c3ccccc3)c12` [Cpd. No. 1, 7-(3,5-Dimethylisoxazol-4-yl)-6-methoxy-2-methyl-N-(3-methyl-1-phenyl-1H-pyrazol-5-yl)-9H-pyrimido[4,5-b]indol-4-amine]: the IC50 in assay [1] (setting [5]) is 21.8 nM; in assay [2] it was 29.8 nM; in assay [3] (setting [6]), 148 nM.

As for `COc1cc2c(cc1-c1c(C)noc1C)[nH]c1nc(C)nc(Nc3c[nH]nc3-c3ccccc3)c12` [Cpd. No. 2, 7-(3,5-Dimethylisoxazol-4-yl)-6-methoxy-2-methyl-N-(3-phenyl-1H-pyrazol-4-yl)-9H-pyrimido[4,5-b]indol-4-amine], the values for the IC50 in assay [1] (setting [5]), in assay [2] and in assay [3] (setting [6]) were 41.9 nM, 68 nM and 246 nM, respectively.

Regarding `COc1cc2c(cc1-c1c(C)noc1C)[nH]c1nc(C)nc(Sc3nnc(C)n3C(C)C)c12` [Cpd. No. 3, 4-(4-((4-Isopropyl-5-methyl-4H-1,2,4-triazol-3-yl)thio)-6-methoxy-2-methyl-9H-pyrimido[4,5-b]indol-7-yl)-3,5-dimethylisoxazole], the IC50 amounted to 540 nM in assay [4] (setting [7]), 183 nM in assay [1] (setting [5]), 38.4 nM in assay [2] and 386 nM in assay [3] (setting [6]).

For `COc1cc2c(cc1-c1c(C)noc1C)[nH]c1nc(C)nc(Nc3sc(-c4ncco4)nc3-c3ccccc3)c12` [Cpd. No. 6, N-(7-(3,5-Dimethylisoxazol-4-yl)-6-methoxy-2-methyl-9H-pyrimido[4,5-b]indol-4-yl)-2-(oxazol-2-yl)-4-phenylthiazol-5-amine], the figures for the half-inhibitory concentration (IC50) in assay [2] and in assay [3] (setting [6]) were 52.6 nM and 1520 nM, respectively.

For `COc1cc2c(cc1-c1c(C)noc1C)[nH]c1nc(C)nc(Nc3nn(C)c4ccccc34)c12` [Cpd. No. 12, 7-(3,5-Dimethylisoxazol-4-yl)-6-methoxy-2-methyl-N-(1-methyl-1H-indazol-3-yl)-9H-pyrimido[4,5-b]indol-4-amine], the IC50 in assay [1] (setting [5]) stood at 28.2 nM; in assay [2], 15.2 nM; in assay [3] (setting [6]) it was 59.6 nM.

As to `COc1cc2c(cc1-c1c(C)noc1C)[nH]c1nc(C)nc(Nc3cc(C(F)(F)F)nn3C(C)(C)C)c12` [Cpd. No. 117, N-(1-(tert-Butyl)-3-(trifluoromethyl)-1H-pyrazol-5-yl)-7-(3,5-dimethylisoxazol-4-yl)-6-methoxy-2-methyl-9H-pyrimido[4,5-b]indol-4-amine], the IC50 was found to be 62.4 nM in assay [4] (setting [7]), 90.9 nM in assay [2] and 177 nM in assay [3] (setting [6]).

As to `COc1cc2c(cc1-c1c(C)noc1C)[nH]c1nc(C)nc(Nc3nn(C)c4ccc(F)cc34)c12` [Cpd. No. 127, 7-(3,5-Dimethylisoxazol-4-yl)-N-(5-fluoro-1-methyl-1H-indazol-3-yl)-6-methoxy-2-methyl-9H-pyrimido[4,5-b]indol-4-amine], the half-maximal inhibitory concentration (IC50) was 178 nM in assay [2] and 508 nM in assay [3] (setting [6]).

`COc1cc2c(cc1-c1c(C)noc1C)[nH]c1nc(C)nc(Nc3cccc4cccnc34)c12` [Cpd. No. 210, 7-(3,5-dimethylisoxazol-4-yl)-6-methoxy-2-methyl-N-(quinolin-8-yl)-9H-pyrimido[4,5-b]indol-4-amine]: the half-inhibitory concentration (IC50) in assay [4] (setting [7]) was greater than 1000 nM; in assay [1] (setting [5]) it was greater than 1000 nM; in assay [2], 1130 nM.

`COc1cc(C)cc(Nc2nc(C)nc3[nH]c4cc(-c5c(C)noc5C)c(OC)cc4c23)c1` [Cpd. No. 218, 7-(3,5-dimethylisoxazol-4-yl)-6-methoxy-N-(3-methoxy-5-methylphenyl)-2-methyl-9H-pyrimido[4,5-b]indol-4-amine]: the IC50 was 17 nM in assay [4] (setting [7]), 15 nM in assay [1] (setting [5]) and 9340 nM in assay [2].

Take `COc1nc2c(cc1-c1c(C)noc1C)[nH]c1nc(C)nc(N(C)c3cc(C(C)(C)C)nn3C)c12` [compound 315, N-(3-(tert-butyl)-1-methyl-1H-pyrazol-5-yl)-7-(3,5-dimethylisoxazol-4-yl)-6-methoxy-N,2-dimethyl-9H-pyrido[2′,3′:4,5]pyrrolo[2,3-d] pyrimidin-4-amine]: the results for the IC50 in assay [4] (setting [8]), in assay [1] (setting [10]) and in assay [3] (setting [12]) were 28 nM, 16 nM and 164 nM, respectively. Moreover, the Ki in assay [4] (setting [9]) was found to be 7.8 nM; in assay [1] (setting [11]) it was 4.7 nM.

On to `COc1nc2c(cc1-c1c(C)noc1C)[nH]c1nc(C)nc(N(C)c3cc(C)nn3C(C)(C)C)c12` [compound 316, N-(1-(tert-butyl)-3-methyl-1H-pyrazol-5-yl)-7-(3,5-dimethylisoxazol-4-yl)-6-methoxy-N,2-dimethyl-9H-pyrido[2′,3′:4,5]pyrrolo [2,3-d]pyrimidin-4-amine], for which the values for the IC50 in assay [4] (setting [8]), in assay [1] (setting [10]) and in assay [3] (setting [12]) were 317 nM, 311 nM and 1020 nM, respectively. For the same compound, the Ki in assay [4] (setting [9]) and in assay [1] (setting [11]) was 106 nM throughout.

Take `COc1nc2c(cc1-c1c(C)noc1C)[nH]c1nc(C)nc(N(C)c3cccc(C)c3)c12` [compound 317, 7-(3,5-dimethylisoxazol-4-yl)-6-methoxy-N,2-dimethyl-N-(m-tolyl)-9H-pyrido[2′,3′:4,5]pyrrolo[2,3-d] pyrimidin-4-amine]: the values for the IC50 in assay [4] (setting [8]), in assay [1] (setting [10]) and in assay [3] (setting [12]) were 74 nM, 139 nM and 1140 nM, respectively. For the same compound, the Ki in assay [4] (setting [9]) was 27 nM; in assay [1] (setting [11]), 44 nM.

For the compound `COc1nc2c(cc1-c1c(C)noc1C)[nH]c1nc(C)nc(N(C)c3nn(C)c4ncccc34)c12` [compound 318, 7-(3,5-dimethylisoxazol-4-yl)-6-methoxy-N,2-dimethyl-N-(1-methyl-1H-pyrazolo[3,4-b]pyridin-3-yl)-9H-pyrido[2′,3′:4,5]pyrrolo[2,3-d] pyrimidin-4-amine], the IC50 in assay [4] (setting [8]) was 35 nM; in assay [1] (setting [10]), 108 nM; in assay [3] (setting [12]), 299 nM. In addition, the Ki in assay [4] (setting [9]) came out at 12 nM; in assay [1] (setting [11]) it was 34 nM.

For the compound `COc1nc2c(cc1-c1c(C)noc1C)[nH]c1nc(C)nc(N(C)c3c(C)cnn3C(C)C)c12` [compound 319, 7-(3,5-dimethylisoxazol-4-yl)-N-(1-isopropyl-4-methyl-1H-pyrazol-5-yl)-6-methoxy-N,2-dimethyl-9H-pyrido[2′,3′:4,5]pyrrolo[2,3-d] pyrimidin-4-amine], the figures for the IC50 in assay [4] (setting [8]), in assay [1] (setting [10]) and in assay [3] (setting [12]) were 102 nM, 92 nM and 646 nM, respectively. For the same compound, the Ki in assay [4] (setting [9]) came to 38 nM; in assay [1] (setting [11]), 27 nM.

`COc1nc2c(cc1-c1c(C)noc1C)[nH]c1nc(C)nc(N(C)c3cc(C4CC4)nn3C)c12` [compound 320, N-(3-cyclopropyl-1-methyl-1H-pyrazol-5-yl)-7-(3,5-dimethylisoxazol-4-yl)-6-methoxy-N,2-dimethyl-9H-pyrido[2′,3′:4,5]pyrrolo[2,3-d] pyrimidin-4-amine]: the IC50 in assay [4] (setting [8]) was 10.2 nM; in assay [1] (setting [10]), 7 nM; in assay [3] (setting [12]) it was 85 nM. The Ki in assay [4] (setting [9]) is 1.8 nM; in assay [1] (setting [11]), 1.3 nM.

`COc1nc2c(cc1-c1c(C)noc1C)[nH]c1nc(C)nc(N(C)C3CCCC3)c12` [compound 321, N-cyclopentyl-7-(3,5-dimethylisoxazol-4-yl)-6-methoxy-N,2-dimethyl-9H-pyrido[2′,3′:4,5]pyrrolo[2,3-d] pyrimidin-4-amine]: the values for the IC50 in assay [4] (setting [8]), in assay [1] (setting [10]) and in assay [3] (setting [12]) were 482 nM, 796 nM and 4430 nM, respectively. Also, the Ki in assay [4] (setting [9]) turned out to be 171 nM; in assay [1] (setting [11]), 239 nM.

The values are drawn from patent US9580430B2, “9H-pyrimido[4,5-B]indoles and related analogs as BET bromodomain inhibitors” (THE REGENTS OF THE UNIVERSITY OF MICHIGAN, priority 2014, dated 2017).
